According to PubChem BioAssay (NCI):
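Test compounds were applied to cells in 96-well plates for 48 hours at 5 doses. GI50 marks 50% less growth. TGI denotes the concentration required for complete inhibition of growth.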

Columns and labels:
Test in all cases: NCI tumour cell line growth inhibition, 48 h
[1] = tested on: M19-MEL melanoma
[2] = tested on: DMS 273 small cell lung
[3] = tested on: RXF-631 renal
[4] = tested on: KM20L2 colon
[5] = tested on: LXFL 529 NSCLC
[6] = tested on: HOP-18 NSCLC
[7] = tested on: SNB-78 CNS
[8] = tested on: XF 498 CNS
[9] = tested on: MDA-N
[10] = tested on: P388/ADR leukemia
[11] = tested on: P388 leukemia
[12] = tested on: SN12K1 renal

| SMILES | TGI [1] [µM] | TGI [2] [µM] | TGI [3] [µM] | TGI [4] [µM] | TGI [5] [µM] | TGI [6] [µM] | TGI [7] [µM] | TGI [8] [µM] | TGI [9] [µM] | also measured |
| --- | --- | --- | --- | --- | --- | --- | --- | --- | --- | --- |
| O=C(OCc1ccccc1)n1cccc1 | > 100 | > 100 | > 100 | > 100 | > 100 | > 100 | > 100 | > 100 | – | – |
| C=C1C(C(=O)O)C1C(=O)O (centres undefined) | > 100 | > 100 | – | > 100 | – | > 100 | > 100 | > 100 | – | – |
| CC(C)(C)OC1=C(OC(C)(C)C)C(O)(c2ccc(Cl)cc2)C1=O (centres undefined) | > 100 | > 100 | > 100 | – | > 100 | > 100 | > 100 | – | – | – |
| CC[P+]1(c2ccccc2)CCCCC1 | > 100 | > 100 | > 100 | > 100 | > 100 | > 100 | > 100 | – | – | – |
| Oc1ccc(/C=N/NC(=S)Nc2cccnc2)nc1 | – | – | – | – | – | – | – | – | > 100 | – |
| Oc1cc(O)c2c(c1)OC(c1ccc(O)c(O)c1)C(O)C2c1c(O)cc(O)c2c1OC(c1ccc(O)c(O)c1)C(O)C2 (centres undefined) | – | – | – | – | – | – | – | – | > 100 | – |
| O=C1C2C3C=C4c5ccccc5N(c5ccccc5)C4([C@@H]2C(=O)N1c1ccc(F)cc1)[C@H]1C(=O)N(c2ccc(F)cc2)C(=O)[C@@H]31 (some centres undefined) | > 100 | – | – | – | – | > 100 | > 100 | > 100 | – | – |
| CCN(CC)CCCC(C)Nc1ccnc(/C=C/c2ccc(Cl)cc2)c1 (centres undefined) | – | – | – | – | – | – | – | – | 3.62 | – |
| N#CC(C#N)=C1CCC2C(=C(C#N)C#N)CCC12 (centres undefined) | > 100 | > 100 | > 100 | > 100 | > 100 | – | > 100 | > 100 | – | – |
| CC(=N/NC(N)=S)/C(C)=N/NC(N)=S | – | – | – | – | – | – | – | – | > 100 | – |
| CSc1cc(C(C)(C)C)ccc1C(O)c1ccc(C(C)(C)C)cc1SC | 23.5 | 26.9 | – | 23.8 | 32.5 | 34 | 40.3 | 23.6 | – | – |
| C=CCC1C(=O)CC2(C)C(CC=C)C(=O)CC12C (centres undefined) | > 100 | > 100 | > 100 | > 100 | > 100 | > 100 | – | > 100 | – | – |
| N#CC1=C(c2ccccc2)OC2(N)OC(c3ccccc3)=C(C#N)C12C#N (centres undefined) | > 100 | > 100 | > 100 | > 100 | > 100 | 75.1 | > 100 | > 100 | – | – |
| CC1OC(CC2C=CCc3c(O)c4c(c(O)c32)C(=O)c2ccccc2C4=O)CC(NC(=O)C(F)(F)F)C1O (centres undefined) | 21.1 | 19.7 | – | 55.3 | 20.4 | – | 14.9 | 14.6 | – | – |
| C/C(=N\NC(=S)N1CCN(c2ccccn2)CC1)c1cccc2cccnc12 | – | – | – | – | – | – | – | – | > 100 | – |
| Cc1ccc(NC(=O)CCC(=O)C2Cc3ccccc3C2=O)cc1C (centres undefined) | > 100 | > 100 | – | > 100 | > 100 | > 100 | > 100 | > 100 | – | – |
| COc1cc(/C=C/c2ccnc3ccccc23)cc(OC)c1OC | – | – | – | – | – | – | – | – | 1.74 | – |
| CN(C)CCNC(=O)c1cccc2c1nc(-c1ccncc1)c1ccccc12 | 11.9 | 12.3 | – | – | – | 51.1 | 23.2 | – | – | – |

| SMILES | TGI [1] [µM] | TGI [2] [µM] | TGI [3] [µM] | TGI [4] [µM] | TGI [5] [µM] | TGI [6] [µM] | TGI [7] [µM] | TGI [8] [µM] | TGI [9] [µM] | also measured |
| --- | --- | --- | --- | --- | --- | --- | --- | --- | --- | --- |
| O=C(O)c1[nH]c2c([N+](=O)[O-])cc([N+](=O)[O-])cc2c1C(=O)O | – | – | – | – | – | – | – | – | 92.9 | – |
| c1ccc(/C(=N\Nc2nc3ccccc3s2)c2ccccn2)cc1 | – | – | – | – | – | – | – | – | > 100 | – |
| O=C1CCc2ccc(O)c(c2)Oc2ccc(cc2)[C@@H]2O[C@@H]2CO1 | > 100 | – | – | > 100 | > 100 | 80.7 | – | 30.6 | – | – |
| CC(=O)[CH-]C(=O)c1ccccc1.CC(=O)[CH-]C(=O)c1ccccc1.CC(=O)[CH-]C(=O)c1ccccc1.[Br-].[Zr+4] | > 100 | – | – | > 100 | > 100 | – | – | – | – | GI50 [1]: 85.8 µM; GI50 [4]: 51.6 µM; GI50 [5]: 70.7 µM |
| CCc1ccccc1NC(=O)C(=O)C(C#N)c1c(Cl)cccc1Cl (centres undefined) | > 100 | > 100 | > 100 | > 100 | > 100 | – | > 100 | > 100 | – | – |
| O=c1[nH]c(=O)n(C2OC(CO)C(O)C2O)cc1F (centres undefined) | > 100 | > 100 | > 100 | > 100 | > 100 | > 100 | 60.1 | > 100 | > 70.5 | – |
| C/C=C1/C(=Cc2[nH]c(C=c3[nH]/c(=C/C4=NC(=O)C(CC)=C4C)c(C)c3CCC(=O)O)c(CCC(=O)O)c2C)NC(=O)C1C (centres undefined) | 41.6 | 37.1 | > 50 | > 50 | > 50 | > 50 | > 50 | 17.5 | – | – |
| O=C(O)CCSC(=O)Nc1ccccc1 | – | > 100 | – | > 100 | > 100 | – | > 100 | – | – | – |
| Cc1cn(C2CC(O)C(COC(N)=O)O2)c(=O)[nH]c1=O (centres undefined) | – | – | – | – | – | – | – | – | > 100 | – |
| FC(F)(F)c1nc(Br)[nH]c1C(F)(F)F | > 100 | > 100 | > 100 | > 100 | > 100 | 93.2 | > 100 | > 100 | – | – |
| CCC(C)C(=O)OC1CCC=C2C=CC(C)C(CCC3CC(O)CC(=O)O3)C21 (centres undefined) | – | – | – | – | – | – | – | – | > 100 | – |
| O=C(NCc1ccccc1)C1C(=O)C(=O)N(Cc2ccccc2)C1=O (centres undefined) | > 100 | > 100 | > 100 | > 100 | > 100 | > 100 | > 100 | – | – | – |
| CC(=N\O)/C(C)=N/O.CC(=N\O)/C(C)=N/O.[Fe].[NH2-].c1c[nH]cn1 | – | – | – | – | – | – | – | – | > 100 | GI50 [9]: > 100 µM |
| CCSCCCC(=O)O | – | – | – | – | – | – | – | – | > 100 | – |
| c1ccc2c(c1)[nH]c1c3ccccc3sc21 | – | – | – | – | – | – | – | – | > 100 | – |
| O=C1c2ccccc2C(=O)c2sc(Nc3ccc([N+](=O)[O-])cc3)nc21 | 3 | 14.6 | > 55.1 | 45.6 | 3.06 | 9.03 | 42 | 4.18 | 3.49 | – |
| NC(=O)c1ncn2c(=O)n(CCCl)nnc12 | 376 | 275 | – | 319 | – | 1130 | 527 | 149 | 338 | TGI [10]: 335 µM; TGI [11]: 482 µM; TGI [12]: 266 µM |
